# Source: US6380158B1, “Motilin homologs” (ZymoGenetics, Inc., priority 1997, dated 2002)
# What was measured:
# [1] = tested on: antral portion of the stomach; assay: Rat stomach contraction in vivo: topical application between two transducing crystals on the antrum; parameters: species or system Sprague-Dawley rats
# Description: Two male Sprague-Dawley rats, approximately 12 weeks old (Harlan, Indianapolis, Ind.) were anesthetized with urethane and their stomachs were exposed through a small abdominal incision. Two 2.4 mm transducing crystals (Sonometrics, Ontario, Canada) were placed on the antral portion of the stomach such that circular contractions could be monitored as a change in the distance between the two crystals. The crystals were attached with VETBOND TISSUE ADHESIVE (3M, St. Paul, Minn.).
# The amplitude of the NE-induced decrease was approximately 50% of the acetylcholine-induced increase in distance. Both responses were transient.
# A negative control of 10 μl of phosphate buffer solution (PBS) applied topically between the crystals had no effect.
# A 14 amino acid zsig33 peptide (from amino acid residue 24 (Gly) to amino acid residue 37 (Gln) of SEQ ID NO: 2) was dissolved in PBS) and 10 μl was applied topically for a final concentration of 1 μg, 10 μg or 100 μg.
# ob/ob mice = assay: Oral glucose challenge in ob/ob mice after oral gavage of the peptide (serum glucose levels); format: in vivo; conditions: 100 μg orally, 30 minutes prior to oral glucose challenge
# Description: Eight female ob/ob mice, approximately 6 weeks […] old (Jackson Labs, Bar Harbor, Me.) were adapted to a 4 hour daily feeding schedule for two weeks. After two weeks on the feeding schedule, the mice were give 100 μg of a 14 amino acid amino zsig33 peptide (from amino acid residue 24 (Gly) to amino acid residue 37 (Gln) of SEQ ID NO: 2) in 100 μl sterile 0.1% BSA by oral gavage, immediately after their eating period (post-prandially). Thirty minutes later, the mice were challenged orally with a 0.5 ml volume of 25% glucose. Retroorbital bleeds were done to determine serum glucose levels. Blood was drawn prior to zsig33 dosing, prior to oral glucose challenge, and at 1, 2, 4, and 20 hours following the glucose challenge.
# [2] = 10 μl of 1 μM applied topically, anesthetized rats
Compound,"amplitude of the NE-induced decrease relative to the acetylcholine-induced increase in distance [1, 2]","change in the distance between the two crystals (circular contractions of the stomach) [1, 2]",change in crystal distance (stomach contractions) ([1]; 1 μg in 10 μl PBS applied topically),change in crystal distance (rate and amplitude of contractions) ([1]; 10 μg in 10 μl PBS applied topically),change in crystal distance (rate and amplitude of contractions) ([1]; 100 μg in 10 μl PBS applied topically),post-prandial glucose absorption (serum glucose levels) (ob/ob mice)
"NC[C@H](O)c1ccc(O)c(O)c1 [norepinephrine, reference compound]",approximately 50%,reduction in the distance between the two crystals,,,,
"zsig33 peptide: 14 amino acid zsig33 peptide, from amino acid residue 24 (Gly) to amino acid residue 37 (Gln) of SEQ ID NO: 2 (GSSFLSPEHQRVQQ)",,,"sustained, rhythmic increase and decrease in crystal distance",enhanced responses in both rate and amplitude,enhanced responses in both rate and amplitude,enhanced post-prandial glucose absorption
